Results from patent EP0391644B1, “Aryl-substituted rhodanine derivatives” (ELI LILLY AND COMPANY, priority 1989, dated 1990).
Values joined by “and” are separate entries in the source; they are usually repeats but may differ in a detail not shown here. Equal values may be shown once.

Columns and labels:
inflammation = assay: Carrageenin Assay; assay type: in vivo; settings: Rattus norvegicus, po, carrageenin-injected hind paws of rats, read-out: Percent Inhibition; for inhibition in vivo at 50 mg/kg: 50 mg/kg orally by gavage
Description: The compounds were evaluated for antiinflammatory activity in the test method described by C.A. Winter, Proc. Soc. Exp. Biol. Med., 111, 544 (1962). In this test, inflammation is created by injecting carrageenin into the hind paws of rats. Test compounds are administered prior to injection to determine percent inhibition of the subsequent inflammation in comparison with control animals.

[1] = tested on: Collagen-Induced Arthritis; assay: Collagen-Induced Arthritis Assay; assay type: in vivo, inbred Lewis male rats; settings: 5 days per week, hindpaw volume
Description: Type II collagen was isolated from bovine articular cartilage by the method of Strawich and Nimni [Biochemistry, 10, 3905 (1971)]. The collagen was dissolved in 0.1 M acetic acid and stored at -20°C. Type II collagen solution was diluted to 2 mg/ml concentration and emulsified thoroughly with an equal volume of incomplete Freund's adjuvant (ICFA). The emulsion containing approximately 0.5 mg of collagen was injected intradermally on day 0 to groups of 6 inbred Lewis male rats (Charles River Breeders; 170-200 g) at various sites in the dorsal area. The hindpaw volumes of each rat were measured and recorded three times a week throughout the test period to assess the inflammatory reaction. The test group animals received compounds under test as suspensions in carboxymethylcellulose vehicle, by oral gavage, 5 days per week (Monday-Friday), beginning on day 1. Control animals received vehicle without a test compound. At the end of the test (day 28 or 30), the blood of these animals was drawn by cardiac puncture and the serum anti-type II collagen antibody levels were estimated by passive hemaglutination technique, using glutaraldehyde treated sheep red cells, to which type II collagen is conjugated [Avrameas et al., Immunochemistry, 6, 67 (1969); Andriopoulos et al., Arth. Rheum., 19, 613 (1976)]. The cellular response or delayed-type hypersensitivity response to type II collagen was measured by the radiometric ear index assay [Kostiala, Immunology, 33, 561 (1977)]. In certain experiments, the bone damage occurring because of immunization with type II collagen and the effects of drugs were determined from the radiographs of the hind-paws of two or three representative animals from each group. Injections of ICFA without collagen II were employed in some rats as a negative control; these rats received only carboxymethycellulose vehicle during the test.
The % inhibition was calculated according to the following formula: % inhibition = [1-(Vt - Vv)/(Vc - Vv)] X 100 [formula] where Vt is the hindpaw volume of a compound-treated animal (test group), Vc is the hindpaw volume of a non-compound-treated animal (carboxymethylcellulose vehicle only-the control group), and Vv is the hindpaw volume of a vehicle (carboxymethylcellulose) treated animal which received ICFA with no collagen II (negative control group).

[2] = tested on: adjuvant-induced arthritis; assay: Developing Adjuvant-Induced Arthritis Test in Rats; assay type: in vivo, male Lewis-Wistar rats; settings: Rattus norvegicus, po, 720 h; 50 mg/kg P.O. x 29; AUC of uninjected paw volumes, Days 16 through 30; read-out: % Inhibition of Uninjected Paw Volume Inflammation
Dystrophic mice (dy/dy) = assay: Muscular Dystrophy Animal Model; assay type: in vivo
Description: Dystrophic mice (dy/dy) were obtained from Jackson Laboratories after weaning (approximately 21 days) and treatment with the compounds shown in Table V was begun at the first sign of dystrophy. The compounds that were tested were administered in the diet and lifespan was measured during the course of treatment. The food and water sources were located in different parts of the cage requiring the animals to walk from the food source to the water source to survive.

## CC(C)(C)c1cc(C=C2SC(=S)NC2=O)cc(C(C)(C)C)c1O [Example 1, 5-{[3,5-bis(1,1-dimethylethyl)-4-hydroxyphenyl]-methylene}-2-thioxo-4-thiazolidinone]
inflammation; 30 mg/kg orally by gavage
  inhibition in vivo at 30 mg/kg: 67%
[1]; 50 mg/kg by oral gavage
  % inhibition: 100% and 53%
[2]
  inhibition in vivo at 50 mg/kg: 41%

## COC(=O)N1CSC(=Cc2cc(C(C)(C)C)c(O)c(C(C)(C)C)c2)C1=O [Example 4, 5-{[3,5-bis(1,1-dimethylethyl)-4-hydroxyphenyl]methylene}-4-oxo-3-thiazolidinecarboxylic acid, methyl ester]
inflammation
  inhibition in vivo at 50 mg/kg: 65%
[1]; 50 mg/kg by oral gavage
  % inhibition: 5%
[2]
  inhibition in vivo at 50 mg/kg: 23%

## CC(C)(C)c1cc(C=C2SCNC2=O)cc(C(C)(C)C)c1O [Example 2, 5-{[3,5-bis(1,1-dimethylethyl)-4-hydroxyphenyl]methylene}-4-thiazolidinone]
inflammation
  inhibition in vivo at 50 mg/kg: 46%
[1]; 30 mg/kg by oral gavage
  % inhibition: 91% and 50%
[1]; 50 mg/kg by oral gavage
  % inhibition: 100%
[2]
  inhibition in vivo at 50 mg/kg: 81%
Dystrophic mice (dy/dy); 0.03 percent by weight of compound in diet
  Average Life Span: 57 days
Dystrophic mice (dy/dy); 0.08 percent by weight of compound in diet
  Average Life Span: 116 days and 73 days
Dystrophic mice (dy/dy); 0.1 percent by weight of compound in diet
  Average Life Span: 108 days
Dystrophic mice (dy/dy); 0.3 percent by weight of compound in diet
  Average Life Span: 74 days

## CC(C)(C)c1cc(CC2SCNC2=O)cc(C(C)(C)C)c1O (centres unmarked) [Example 3, 5-{[3,5-bis(1,1-dimethylethyl)-4-hydroxyphenyl]methyl}-4-thiazolidinone]
inflammation
  inhibition in vivo at 50 mg/kg: 12%
[1]; 50 mg/kg by oral gavage
  % inhibition: 79%
[2]
  inhibition in vivo at 50 mg/kg: 10%
